Target: T1, HMG-CoA reductase (Homo sapiens, UniProt P04035)
T1 construct: endogenous in cells; host or cells: HepG2 (Korea Cell Line Bank)
T1 sequence (P04035 1-888): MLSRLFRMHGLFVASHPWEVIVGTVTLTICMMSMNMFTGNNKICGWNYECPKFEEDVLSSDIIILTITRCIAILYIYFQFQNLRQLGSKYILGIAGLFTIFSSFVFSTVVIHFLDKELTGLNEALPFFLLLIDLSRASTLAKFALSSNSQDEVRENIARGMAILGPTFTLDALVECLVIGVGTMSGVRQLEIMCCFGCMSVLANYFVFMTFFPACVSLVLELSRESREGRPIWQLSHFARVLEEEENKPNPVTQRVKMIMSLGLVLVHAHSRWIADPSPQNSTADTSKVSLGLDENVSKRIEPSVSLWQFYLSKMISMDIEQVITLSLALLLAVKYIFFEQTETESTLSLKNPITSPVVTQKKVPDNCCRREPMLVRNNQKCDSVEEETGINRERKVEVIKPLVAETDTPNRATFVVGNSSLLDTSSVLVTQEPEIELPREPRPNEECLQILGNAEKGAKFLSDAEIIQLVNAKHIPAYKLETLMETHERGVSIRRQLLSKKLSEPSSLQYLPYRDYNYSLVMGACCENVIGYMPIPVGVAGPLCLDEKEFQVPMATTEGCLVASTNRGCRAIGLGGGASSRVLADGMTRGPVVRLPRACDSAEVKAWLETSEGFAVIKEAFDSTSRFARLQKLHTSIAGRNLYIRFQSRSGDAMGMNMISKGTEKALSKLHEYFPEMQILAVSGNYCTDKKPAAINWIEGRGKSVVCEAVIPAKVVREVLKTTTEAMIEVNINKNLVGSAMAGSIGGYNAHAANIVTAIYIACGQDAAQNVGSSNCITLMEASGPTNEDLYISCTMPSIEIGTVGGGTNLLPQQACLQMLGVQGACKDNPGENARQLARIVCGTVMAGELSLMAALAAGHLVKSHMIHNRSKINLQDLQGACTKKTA
Experiment: HMG-CoA reductase (HMGCR) degradation in HepG2 cells by western blotting
Format: cell-based
Conditions: treated for 18 hours, ratio of HMG-CoA reductase to GAPDH, read-out: DC50
How it was run: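 HepG2 cells (passage P105–P110) treated 18 hours with compounds in 10-point three-fold dilutions from 3 μM. RIPA lysates (15 μg protein, BCA-quantified) run on SDS-PAGE and immunoblotted for HMGCR (1:500) with GAPDH (1:20000) as loading control, primary antibodies 16 hours at 4° C.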

DC50 [nM] | SMILES
50 to 500 | C[C@H]1C=C2C=C[C@H](C)[C@H](CC[C@@H]3C[C@@H](O)CC(=O)O3)[C@H]2[C@@H](OC(=O)NCCCCCCCCNC(=O)COc2cccc3c2C(=O)N(C2CCC(=O)NC2=O)C3=O)C1 (stereo partly drawn) [Compound 97, (1S,3R,7S,8S,8aR)-8-(2-((2R,4R)-4-hydroxy-6-oxotetrahydro-2H-pyran-2-yl)ethyl)-3,7-dimethyl-1,2,3,7,8,8a-hexahydronaphthalen-1-yl (8-(2-((2-(2,6-dioxopiperidin-3-yl)-1,3-dioxoisoindolin-4-yl)oxy)acetamido)octyl)carbamate]
< 50 | C[C@H]1C=C2C=C[C@H](C)[C@H](CC[C@@H]3C[C@@H](O)CC(=O)O3)[C@H]2[C@@H](OC(=O)NCCOCCOCCOCC(=O)Nc2cccc3c2C(=O)N(C2CCC(=O)NC2=O)C3=O)C1 (stereo partly drawn) [Compound 99, (1S,3R,7S,8S,8aR)-8-(2-((2R,4R)-4-hydroxy-6-oxotetrahydro-2H-pyran-2-yl)ethyl)-3,7-dimethyl-1,2,3,7,8,8a-hexahydronaphthalen-1-yl (2-(2-(2-(2-((2-(2,6-dioxopiperidin-3-yl)-1,3-dioxoisoindolin-4-yl)amino)-2-oxoethoxy)ethoxy)ethoxy)ethyl)carbamate]
< 50 | C[C@H]1C=C2C=C[C@H](C)[C@H](CC[C@@H]3C[C@@H](O)CC(=O)O3)[C@H]2[C@@H](OC(=O)NCCC(=O)NCCOCCNc2cccc3c2C(=O)N(C2CCC(=O)NC2=O)C3=O)C1 (stereo partly drawn) [Compound 101, (1S,3R,7S,8S,8aR)-8-(2-((2R,4R)-4-hydroxy-6-oxotetrahydro-2H-pyran-2-yl)ethyl)-3,7-dimethyl-1,2,3,7,8,8a-hexahydronaphthalen-1-yl (3-((2-(2-((2-(2,6-dioxopiperidin-3-yl)-1,3-dioxoisoindolin-4-yl)amino)ethoxy)ethyl)amino)-3-oxopropyl)carbamate]
< 50 | C[C@H]1C=C2C=C[C@H](C)[C@H](CC[C@@H]3C[C@@H](O)CC(=O)O3)[C@H]2[C@@H](OC(=O)NCCCn2cnc(CNc3cccc4c3C(=O)N(C3CCC(=O)NC3=O)C4=O)c2)C1 (stereo partly drawn) [Compound 103, (1S,3R,7S,8S,8aR)-8-(2-((2R,4R)-4-hydroxy-6-oxotetrahydro-2H-pyran-2-yl)ethyl)-3,7-dimethyl-1,2,3,7,8,8a-hexahydronaphthalen-1-yl (3-(4-(((2-(2,6-dioxopiperidin-3-yl)-1,3-dioxoisoindolin-4-yl)amino)methyl)-1H-imidazol-1-yl)propyl)carbamate]
< 50 | C[C@H]1C=C2C=C[C@H](C)[C@H](CC[C@@H]3C[C@@H](O)CC(=O)O3)[C@H]2[C@@H](OC(=O)NCc2ccc(OCCNc3cccc4c3C(=O)N(C3CCC(=O)NC3=O)C4=O)cc2)C1 (stereo partly drawn) [Compound 105, (1S,3R,7S,8S,8aR)-8-(2-((2R,4R)-4-hydroxy-6-oxotetrahydro-2H-pyran-2-yl)ethyl)-3,7-dimethyl-1,2,3,7,8,8a-hexahydronaphthalen-1-yl (4-(2-((2-(2,6-dioxopiperidin-3-yl)-1,3-dioxoisoindolin-4-yl)amino)ethoxy)benzyl)carbamate]
< 50 | C[C@H]1C=C2C=C[C@H](C)[C@H](CC[C@@H](O)C[C@@H](O)CC(=O)O)[C@H]2[C@@H](OC(=O)NCCOCCOCCNc2cccc3c2C(=O)N(C2CCC(=O)NC2=O)C3=O)C1 (stereo partly drawn) [Compound 106, (3R,5R)-7-((1S,2S,6R,8S,8aR)-8-(((2-(2-(2-((2-(2,6-dioxopiperidin-3-yl)-1,3-dioxoisoindolin-4-yl)amino)ethoxy)ethoxy)ethyl)carbamoyl)oxy)-2,6-dimethyl-1,2,6,7,8,8a-hexahydronaphthalen-1-yl)-3,5-dihydroxyheptanoic acid]
< 50 | C[C@H]1C=C2C=C[C@H](C)[C@H](CC[C@@H](O)C[C@@H](O)CC(=O)O)[C@H]2[C@@H](OC(=O)NCCOCCOCCOCCNc2cccc3c2C(=O)N(C2CCC(=O)NC2=O)C3=O)C1 (stereo partly drawn) [Compound 107, (3R,5R)-7-((1S,2S,6R,8S,8aR)-8-(((2-(2-(2-(2-((2-(2,6-dioxopiperidin-3-yl)-1,3-dioxoisoindolin-4-yl)amino)ethoxy)ethoxy)ethoxy)ethyl)carbamoyl)oxy)-2,6-dimethyl-1,2,6,7,8,8a-hexahydronaphthalen-1-yl)-3,5-dihydroxyheptanoic acid]

Further lines, the compound ahead of its results:

SMILES | DC50 [nM]
C[C@H]1C=C2C=C[C@H](C)[C@H](CC[C@@H]3C[C@@H](O)CC(=O)O3)[C@H]2[C@@H](OC(=O)NCCCOCCCOCCCNc2cccc3c2C(=O)N(C2CCC(=O)NC2=O)C3=O)C1 (stereo partly drawn) [Compound 95, (1S,3R,7S,8S,8aR)-8-(2-((2R,4R)-4-hydroxy-6-oxotetrahydro-2H-pyran-2-yl)ethyl)-3,7-dimethyl-1,2,3,7,8,8a-hexahydronaphthalen-1-yl (3-(3-(3-((2-(2,6-dioxopiperidin-3-yl)-1,3-dioxoisoindolin-4-yl)amino)propoxy)propoxy)propyl)carbamate] | 50 to 500
C[C@H]1C=C2C=C[C@H](C)[C@H](CC[C@@H]3C[C@@H](O[Si](C)(C)C(C)(C)C)CC(=O)O3)[C@H]2[C@@H](OC(=O)NCCCCCCCCNC(=O)COc2cccc3c2C(=O)N(C2CCC(=O)NC2=O)C3=O)C1 (stereo partly drawn) [Compound 96, (1S,3R,7S,8S,8aR)-8-(2-((2R,4R)-4-((tert-butyldimethylsilyl)oxy)-6-oxotetrahydro-2H-pyran-2-yl)ethyl)-3,7-dimethyl-1,2,3,7,8,8a-hexahydronaphthalen-1-yl (8-(2-((2-(2,6-dioxopiperidin-3-yl)-1,3-dioxoisoindolin-4-yl)oxy)acetamido)octyl)carbamate] | 50 to 500
C[C@H]1C=C2C=C[C@H](C)[C@H](CC[C@@H]3C[C@@H](O[Si](C)(C)C(C)(C)C)CC(=O)O3)[C@H]2[C@@H](OC(=O)NCCOCCOCCOCC(=O)Nc2cccc3c2C(=O)N(C2CCC(=O)NC2=O)C3=O)C1 (stereo partly drawn) [Compound 98, (1S,3R,7S,8S,8aR)-8-(2-((2R,4R)-4-((tert-butyldimethylsilyl)oxy)-6-oxotetrahydro-2H-pyran-2-yl)ethyl)-3,7-dimethyl-1,2,3,7,8,8a-hexahydronaphthalen-1-yl (2-(2-(2-(2-((2-(2,6-dioxopiperidin-3-yl)-1,3-dioxoisoindolin-4-yl)amino)-2-oxoethoxy)ethoxy)ethoxy)ethyl)carbamate] | < 50
C[C@H]1C=C2C=C[C@H](C)[C@H](CC[C@@H]3C[C@@H](O[Si](C)(C)C(C)(C)C)CC(=O)O3)[C@H]2[C@@H](OC(=O)NCCC(=O)NCCOCCNc2cccc3c2C(=O)N(C2CCC(=O)NC2=O)C3=O)C1 (stereo partly drawn) [Compound 100, (1S,3R,7S,8S,8aR)-8-(2-((2R,4R)-4-((tert-butyldimethylsilyl)oxy)-6-oxotetrahydro-2H-pyran-2-yl)ethyl)-3,7-dimethyl-1,2,3,7,8,8a-hexahydronaphthalen-1-yl (3-((2-(2-((2-(2,6-dioxopiperidin-3-yl)-1,3-dioxoisoindolin-4-yl)amino)ethoxy)ethyl)amino)-3-oxopropyl)carbamate] | < 50
C[C@H]1C=C2C=C[C@H](C)[C@H](CC[C@@H]3C[C@@H](O[Si](C)(C)C(C)(C)C)CC(=O)O3)[C@H]2[C@@H](OC(=O)NCCCn2cnc(CNc3cccc4c3C(=O)N(C3CCC(=O)NC3=O)C4=O)c2)C1 (stereo partly drawn) [Compound 102, (1S,3R,7S,8S,8aR)-8-(2-((2R,4R)-4-((tert-butyldimethylsilyl)oxy)-6-oxotetrahydro-2H-pyran-2-yl)ethyl)-3,7-dimethyl-1,2,3,7,8,8a-hexahydronaphthalen-1-yl (3-(4-(((2-(2,6-dioxopiperidin-3-yl)-1,3-dioxoisoindolin-4-yl)amino)methyl)-1H-imidazol-1-yl)propyl)carbamate] | < 50
C[C@H]1C=C2C=C[C@H](C)[C@H](CC[C@@H]3C[C@@H](O[Si](C)(C)C(C)(C)C)CC(=O)O3)[C@H]2[C@@H](OC(=O)NCc2ccc(OCCNc3cccc4c3C(=O)N(C3CCC(=O)NC3=O)C4=O)cc2)C1 (stereo partly drawn) [Compound 104, (1S,3R,7S,8S,8aR)-8-(2-((2R,4R)-4-((tert-butyldimethylsilyl)oxy)-6-oxotetrahydro-2H-pyran-2-yl)ethyl)-3,7-dimethyl-1,2,3,7,8,8a-hexahydronaphthalen-1-yl (4-(2-((2-(2,6-dioxopiperidin-3-yl)-1,3-dioxoisoindolin-4-yl)amino)ethoxy)benzyl)carbamate] | < 50

From patent US12479840B2, “HMG-CoA reductase degradation inducing compound” (Uppthera, priority 2020, dated 2025)
